Data: patent US20220193180A1, “AGING PROGRESSION SUPPRESSING AGENT, AND FOOD OR BEVERAGE PRODUCT COMPRISING SAME” (NITTA GELATIN INC., priority 2019, published 2022)
Where no end group is shown, it is not given here. [ ]: non-standard residue; d: D form. Hyp = O=C(O)[C@@H]1C[C@@H](O)CN1

Experiments:
[1] = tested on: glutathione synthetase gene; experiment: Gene expression test: mRNA level of glutathione synthetase gene in epidermal cells (RT-PCR, corrected with GAPDH); type: cell-based, human; conditions: NHEK cells, 1 mM final concentration, 72 hours; for Gene expression increase rate (glutathione synthetase gene): control = 100
Method: (§1) First, normal human epidermal keratinocytes NHEK (NB) (manufactured by KURABO INDUSTRIES LTD.) were obtained as epidermal cells. The cells were seeded in a necessary number of commercially available dishes of ϕ60 mm at 1.25×10^4 cells per dish (5 mL of a cell dispersion liquid having a concentration of 0.25×10^4 cells/mL), and cultured in a serum-free medium (trade name: “HuMedia KG-2”, manufactured by KURABO INDUSTRIES LTD.) for 2 days. Then, the cells were confirmed to be subconfluent in the dishes, and the medium in the dishes was then replaced by a basal medium (trade name: “HuMedia KB-2”, manufactured by KURABO INDUSTRIES LTD.). In this way, epidermal cells for evaluating the mRNA level of the type 17 collagen gene and the mRNA level of the glutathione synthetase gene were prepared.
(§2) To the basal medium in the dishes, the peptide or the collagen peptide mixture was added to the concentrations shown in Tables 1 to 4, and the cells were cultured at 37° C. in an atmosphere at a carbon dioxide concentration of 5 vol % for 72 hours to prepare samples to be subjected to a gene expression test. In addition, a control sample obtained by adding only ion-exchanged water to the basal medium in the dish (hereinafter, also referred to as “Blank”) was prepared. This control sample was also cultured at 37° C. in an atmosphere at a carbon dioxide concentration of 5 vol % for 72 hours.
Next, by using a RNA extraction kit (trade name: “TRIzol (registered trademark) Reagent, manufactured by Life Technologies Japan Ltd.) in accordance with the protocol accompanying the kit, total RNA was extracted from the epidermal cells in the dish to obtain an extract containing total RNA for each sample. Subsequently, by using a cDNA preparation kit (trade name (product number): “High Capacity RNA-to-cDNA Kit (4387406)”, manufactured by Life Technologies Japan Ltd.) in accordance with the protocol accompanying the kit, reverse transcription was performed on RNA in the extract to obtain cDNA from the RNA in the extract. […]
In the RT-PCR, the mRNA levels of type 17 collagen (manufactured by Life Technologies Japan Ltd., primer: Hs009900361_ml) as a target gene and glutathione synthetase (GSS, manufactured by Life Technologies Japan Ltd., primer: Hs01547656_ml) were measured. […]
First, in the samples and the control sample, the mRNA levels (gene expression levels) of the two target genes (type 17 collagen and glutathione synthetase) were each calculated. […] Specifically, values obtained by dividing the mRNA levels of the two target genes by the mRNA level of GAPDH (relative values) were each determined.
Then, the ratio of the correction value obtained in each sample to the correction value in the control sample, which was defined as 100, was determined (gene expression increase rate (%)). […]

type 17 collagen gene = experiment: Gene expression test: mRNA level of type 17 collagen gene in epidermal cells (RT-PCR, corrected with GAPDH); type: cell-based, human; design: key to Assessment (promoting action on type 17 collagen gene expression): samples with “++” were determined to have a significance in the promoting action on expression of the gene; In samples with “+”, the gene expression increase rate (%) exceeded 100; Samples with “−” were determined to have no significance in the promoting action on expression of the gene; conditions: NHEK cells; for Assessment (promoting action on type 17 collagen gene expression) / Gene expression increase rate (type 17 collagen gene): 1 mM final concentration, 72 hours; for Gene expression increase rate (type 17 collagen gene): control = 100
Method: as §1, §2
Next, by using a RNA extraction kit (trade name: “TRIzol (registered trademark) Reagent, manufactured by Life Technologies Japan Ltd.) in accordance with the protocol accompanying the kit, total RNA was extracted from the epidermal cells in the dish to obtain an extract containing total RNA for each sample. Subsequently, by using a cDNA preparation kit (trade name (product number): “High Capacity RNA-to-cDNA Kit (4387406)”, manufactured by Life Technologies Japan Ltd.) in accordance with the protocol accompanying the kit, reverse transcription was performed on RNA in the extract to obtain cDNA from the RNA in the extract. Further, real-time (RT)-PCR was performed on the cDNA by a DNA amplifying apparatus (trade name: “Step One Plus (TM) Real-Time PCR System”, manufactured by Applied Biosystems Inc.).
In the RT-PCR, the mRNA levels of type 17 collagen (manufactured by Life Technologies Japan Ltd., primer: Hs009900361_ml) as a target gene and glutathione synthetase (GSS, manufactured by Life Technologies Japan Ltd., primer: Hs01547656_ml) were measured. As an internal standard (correction gene), GAPDH was selected. For calculation of the mRNA level, a calibrated curve method was used. As the primer and the probe for the RT-PCR, those accompanying a reagent kit (trade name: “TaqMan (registered trademark) Gene Expression Assays, manufactured by Applied Biosystems Inc.) were used.
First, in the samples and the control sample, the mRNA levels (gene expression levels) of the two target genes (type 17 collagen and glutathione synthetase) were each calculated. Next, the mRNA levels of the two target genes were corrected with the mRNA level of GAPDH as a correction gene to obtain correction values in the samples and the control sample. Specifically, values obtained by dividing the mRNA levels of the two target genes by the mRNA level of GAPDH (relative values) were each determined.
Then, the ratio of the correction value obtained in each sample to the correction value in the control sample, which was defined as 100, was determined (gene expression increase rate (%)).
Further, the gene expression increase rate (%) was subjected to statistical processing to evaluate significance of the promoting action on gene expression of the type 17 collagen gene and the glutathione synthetase gene in each sample. […]

## Gly-Pro [GP]
[1]
  Assessment (promoting action on glutathione synthetase gene expression): + (In samples with “+”, the gene expression increase rate (%) exceeded 100)
  Gene expression increase rate (glutathione synthetase gene): 106 ± 2%
Type 17 collagen gene
  Assessment (promoting action on type 17 collagen gene expression): ++
  Gene expression increase rate (type 17 collagen gene): 201 ± 8.42%

## Glu-Hyp [EO, reference compound]
Type 17 collagen gene
  Assessment (promoting action on type 17 collagen gene expression): −
  Gene expression increase rate (type 17 collagen gene): 100 ± 6.46%
Type 17 collagen gene; discussion of Table 1
  promoting action on type 17 collagen gene expression (in words): did not exhibit an evident promoting action

## Glu-[Hyp]-Gly [EOG]
[1]
  Assessment (promoting action on glutathione synthetase gene expression): + (In samples with “+”, the gene expression increase rate (%) exceeded 100)
  Gene expression increase rate (glutathione synthetase gene): 131 ± 10%
Type 17 collagen gene
  Assessment (promoting action on type 17 collagen gene expression): + (In samples with “+”, the gene expression increase rate (%) exceeded 100)
  Gene expression increase rate (type 17 collagen gene): 144 ± 17.01%
